Data on 2 compounds can be found in US11034670B2, “Poly-ADP ribose polymerase (PARP) inhibitors” (Mitobridge, Inc., priority 2016, dated 2021).

This assay deals with kidney injury (ischemia-reperfusion). The note with it: rat; for blood urea nitrogen (BUN) / plasma creatinine: 15 mg/kg IV after ischemia-reperfusion, 24 hours after reperfusion, vs IR-vehicle; for kidney injury: dosed IV after ischemia-reperfusion.

The structures appear in SMILES notation.

For `C[C@H]1CN(c2ccc(C#N)cn2)CCN1C(=O)CCc1nc2cccc(F)c2c(=O)[nH]1` [Ex. 30, 6-[(3S)-4-[3-(5-fluoro-4-oxo-3H-quinazolin-2-yl)propanoyl]-3-methyl-piperazin-1-yl]pyridine-3-carbonitrile], the “blood urea nitrogen (BUN)” value was “significantly reduced”, the plasma creatinine result is reported as “significantly reduced” and the kidney injury entry is on record as “reduced kidney injury”.

`C[C@H]1CN(c2ccc(C#N)cn2)CCN1C(=O)CCc1nc2ccc(F)cc2c(=O)[nH]1` [Ex. 29, 6-[(3S)-4-[3-(6-fluoro-4-oxo-3H-quinazolin-2-yl)propanoyl]-3-methyl-piperazin-1-yl]pyridine-3-carbonitrile]: the “blood urea nitrogen (BUN)” value was “significantly reduced”, the plasma creatinine entry was “significantly reduced” and the kidney injury result is given as “reduced kidney injury”.
